Measurements published in ChEMBL document CHEMBL1146927, “Semi-synthetic preparation of the rare, cytotoxic, deep-sea sourced sponge metabolites discorhabdins P and U” (Bioorg Med Chem Lett, 2006).
In brackets after ≈: the same amount, converted by molar mass.

Key:
Escherichia coli = assay: Zone of Escherichia coli inhibition at 30 ug; type: functional
P388 = assay: Antiproliferative activity against murine P388D1 cell line; type: functional, cell-based; conditions: Mus musculus
Bacillus subtilis = assay: Zone of Bacillus subtilis inhibition at 30 ug; type: functional

Structure (SMILES)	inhibition zone (IZ) (Escherichia coli)	IC50 (P388)	inhibition zone (IZ) (Bacillus subtilis)
CSC1=CC(=O)C(Br)=C[C@]12C=CNC1=C2C2=NCCc3c[nH]c(c32)C1=O	0 mm	0.081 µg/mL (≈ 0.189 µM)	3 mm
O=C1C=C(SC(=O)c2ccccc2)[C@@]2(C=CNC3=C2C2=NCCc4cn(C(=O)c5ccccc5)c(c42)C3=O)C=C1Br	0 mm	0.918 µg/mL (≈ 1.47 µM)	0 mm
O=C1C=C2S[C@H]3C[C@]2(C=C1Br)C1=C(N3)C(=O)c2[nH]cc3c2C1=NCC3 [(+)-DISCORHABDIN B]	1 mm	0.044 µg/mL (≈ 0.106 µM)	6 mm
O=C1C(Br)=CC2(C=C1Br)CCNC1=C2C2=NCCc3c[nH]c(c32)C1=O [DISCORHABDIN C]	1 mm	0.062 µg/mL (≈ 0.134 µM)	8 mm
CSC1=CC(=O)C(Br)=C[C@]12C=CNC1=C2C2=NCCc3cn(C)c(c32)C1=O [DISCORHABDIN U]	0 mm	0.089 µg/mL (≈ 0.201 µM)	3 mm
Cn1cc2c3c1C(=O)C1=C(C3=NCC2)C2(C=C(Br)C(=O)C(Br)=C2)CCN1 [DISCORHABDIN]	0 mm	0.182 µg/mL (≈ 0.381 µM)	8 mm
